What was measured:
MC65 neuroblastoma cell = assay: MC65 assay: protection against AB toxicity (MTT cell viability); type: cell-based, human; conditions: MC65 cells, TC removal, 3 days
Text: The ability of agents to protect against AB toxicity can be measured according to their effect on the survivability of MC65 neuroblastoma cell (Maezawa et al. (2008) J. Neurochem. 104:457). In the MC65 model system, expression of the C-terminal region (C99) of the amyloid precursor protein (APP) is turned on in the absence of the transgene suppressor, tetracycline (TC). Upon APP-C99 induction (TC-), AB is generated after proteolysis by cellular γ-secretase […]. In the absence of protection, death of MC65 neuroblastoma cells results due to the intracellular accumulation of oligomeric AB (ABO). […] In Table 2 below, we report the ability of the SL-LRL1, SL-LRL2, SL-Res1, SL-Res2, and SL-Res3 compounds to protect against AB toxicity in the MC65 assay.
The cell culture model used for these studies was the human neuroblastoma cell line (MC65) equipped with conditional expression of the carboxyl-terminal 99 residues of the amyloid-beta precursor protein (APP-C99). AB is generated from APP-C99 after proteolysis by cellular γ-secretase. To induce cellular AB production, the transgene suppressor, tetracycline (TC), was removed from the media, as described previously (Maezawa et al. (2008)). Intracellular ABO starts to accumulate as early as 4 hours after TC removal. The compounds were added immediately after TC removal, and the cells were maintained for 3 days without media change before measuring cell viability. The cytotoxicity was determined on day 3 using a colorimetric MTT [3-(4,5-dimethylthiazol-2yl)-2,5-diphenyltetrazolium bromide] cell viability assay.

[1] = biological target: T1, amyloid plaque (AB) in 5xFAD mouse brain slices (Homo sapiens, UniProt P05067); assay: T2/T2*-weighted MRI of coronal brain slices labeled in vitro with spin-labeled compound; conditions: 5xFAD brain slices/specimens incubated in vitro with compound
T1 construct: produces elevated amyloid beta levels in the brain; from tissue; host or cells: brain of 5xFAD transgenic mice (400 µm coronal slices)
T1 sequence (P05067 672-713 limits assumed): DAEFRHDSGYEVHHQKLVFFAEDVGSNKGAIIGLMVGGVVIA
Procedure: MR images of coronal brain slices (400 μm thick) were obtained from a transgenic AD mouse model (5xFAD) with and without exposure to HO-4160 nitroxide spin-labeled […] (SLF), where the SLF-negative sample was treated with DMSO vehicle equal to the SLF-exposed sample. Following the labeling period with either SLF or the DMSO vehicle control, the brain slices were imbedded into agarose and imaged by MRI. Measurements were made in three separate experiments, using slices from unique AD and wild type (WT) mice in each experiment.
5xFAD brain slices treated with SLF decrease in intensity to a mean value of 1.6±0.1×10^5, compared to the T2-weighted images of the untreated samples, with a mean value of 2.6±0.1×10^5. Evaluation of the two sets by the unpaired t-test supports a significant difference among these groups (p<0.01). With respect to T2*, there also is a significant (p<0.02) intensity difference between the two groups of 5xFAD specimens, with a mean intensity of 1.4±0.2×10^5 for the SLF-treated samples, and a mean intensity of 2.3±0.1×10^5 for the untreated samples. In addition, T2 and T2*-weighted imaging of corresponding slices from WT mice show no difference between the SLF-treated and SLF-negative (not shown) specimens.
Both T2 and T2* signal suppression was calculated in each of the three experiments. The average suppression values were calculated according to the equation: SS %=[(SIref−SI)/SIref]*100 where SI is the average signal intensity of the 5xFAD SLF+ section and SIref is the average signal intensity of the 5xFAD SLF− or WT SLF+ section. Calculation results are plotted in FIG. 7, where both the gray and white bars represent the suppression of MRI intensity found in the 5xFAD specimen following SLF treatment. The gray bars show signal suppression relative to the untreated 5xFAD brain, while the white bars compare the suppression relative to the SLF-treated specimens from WT mice. Relative to both controls, SLF generates ˜40% signal suppression for samples carrying a high amyloid-beta load. In the absence of SLF, the average intensity of the 5xFAD brain sections have a slightly lower T2/T2* MRI intensity than specimens from WT mice. This can be attributed to iron bound to deposits of AB, which has been previously observed in the MRI analyses of AD model mice (Vanhoutte et al. (2005); Jack et al. (2007); and Wadghiri et al. (2012)). Thus, the relative suppression is slightly higher when comparing the +SLF AD sample to the +SLF WT sample.

[2] = biological target: T2, amyloid (AB) in 5xFAD mouse brain tissue (Homo sapiens, UniProt P05067); assay: EPR spectroscopy of brain slices labeled in vitro; type: binding; conditions: 5xFAD brain tissue treated in vitro
T2 construct: produces elevated amyloid beta levels in the brain; from tissue; host or cells: brain of 5xFAD transgenic mice (400 µm coronal slices)
T2 sequence (P05067 672-713 limits assumed): as above
Text: Samples were loaded into a quartz cell and examined by electron paramagnetic resonance (EPR) spectroscopy. […] Thus, in agreement with results from the MRI measurements, the lack of EPR signal from the WT+SLF brain section excludes non-specific binding of SLF in these tissue samples. […] The broad EPR spectrum from the +SLF 5xFAD reflects a strongly immobilized spin probe, consistent with high affinity binding to a solidified matrix.

Row | Structure (SMILES) | EC50 (MC65 neuroblastoma cell) [nM] | contrast in T2*-weighted imaging [1] | EPR signal / binding to brain tissue [2]
1 | Cc1c(C(N)=O)c(=O)oc2cc3c(cc12)nc(NCCNC(=O)C1CC(C)(C)N([O])C1(C)C)n3Cc1cccc(I)c1 (centres unmarked) [SL-LRL1, 3-(3-iodobenzyl)-8-methyl-6-oxo-2-((2-(2,2,5,5-tetramethyl-1-oxylpyrrolidine-3-carboxamido)ethyl)amino)-3,6-dihydrochromeno[6,7-d]imidazole-7-carboxamide Radical] | 4500 | strong negative contrast | confirming the binding
2 | CC1(C)C=C(C(=O)Oc2ccc(/C=C/c3cc(O)cc(O)c3)cc2)C(C)(C)N1[O] [SL-Res3, (E)-4-(3,5-dihydroxystyryl)phenyl 2,2,5,5-tetramethyl-1-oxyl-2,5-dihydro-1H-pyrrole-3-carboxylate Radical] | 410 | ability to generate negative contrast | –
3 | CC1(C)CC(NC(=O)COc2cc(O)cc(/C=C/c3ccc(O)cc3)c2)C(C)(C)N1[O] (centres unmarked) [SL-Res2, (E)-2-(3-hydroxy-5-(4-hydroxystyryl)phenoxy)-N-(2,2,5,5-tetramethyl-1-oxylpyrrolidin-3-yl)acetamide Radical] | 680 | ability to generate negative contrast | –
4 | CC1(C)C=C(COc2cc(O)cc(/C=C/c3ccc(O)cc3)c2)C(C)(C)N1[O] [SL-Res1] | 450 | ability to generate negative contrast | –
5 | Cc1c(C(N)=O)c(=O)oc2cc3c(cc12)nc(NCC1=CC(C)(C)N([O])C1(C)C)n3Cc1cccc(I)c1 [SL-LRL2, 3-(3-iodobenzyl)-8-methyl-6-oxo-2-(((2,2,5,5-tetramethyl-1-oxyl-2,5-dihydro-1H-pyrrol-3-yl)methyl)amino)-3,6-dihydrochromeno[6,7-d]imidazole-7-carboxamide Radical] | 3500 | ability to generate negative contrast | –
